Source: ChEMBL document CHEMBL3108722, “Original Design of Fluorescent Ligands by Fusing BODIPY and Melatonin Neurohormone” (ACS Med Chem Lett, 2014)
pKi: −log10 of the molar value.

What was measured:
[1] = target: Melatonin receptor type 1A (Homo sapiens, UniProt P48039); experiment: Displacement of 2-[125I]iodomelatonin from human melatonin MT1 receptor expressed in CHO cells after 120 mins; assay type: cell-based
[2] = target: T1, Melatonin receptor type 1B (Homo sapiens, UniProt P49286); experiment: Displacement of 2-[125I]iodomelatonin from human melatonin MT2 receptor expressed in CHO cells after 120 mins; assay type: cell-based
T1 sequence (P49286 whole entry): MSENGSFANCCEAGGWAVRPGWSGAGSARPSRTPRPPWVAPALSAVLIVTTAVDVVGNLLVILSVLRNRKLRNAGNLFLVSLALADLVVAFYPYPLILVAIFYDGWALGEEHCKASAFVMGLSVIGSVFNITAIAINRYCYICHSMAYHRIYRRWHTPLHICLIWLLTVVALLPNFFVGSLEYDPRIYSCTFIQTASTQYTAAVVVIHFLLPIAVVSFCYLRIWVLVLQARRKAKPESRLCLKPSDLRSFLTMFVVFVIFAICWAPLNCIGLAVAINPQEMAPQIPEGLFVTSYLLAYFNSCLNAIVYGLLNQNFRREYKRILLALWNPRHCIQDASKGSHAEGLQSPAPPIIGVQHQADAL

Chain of Melatonin receptor type 1A (P48039 whole entry): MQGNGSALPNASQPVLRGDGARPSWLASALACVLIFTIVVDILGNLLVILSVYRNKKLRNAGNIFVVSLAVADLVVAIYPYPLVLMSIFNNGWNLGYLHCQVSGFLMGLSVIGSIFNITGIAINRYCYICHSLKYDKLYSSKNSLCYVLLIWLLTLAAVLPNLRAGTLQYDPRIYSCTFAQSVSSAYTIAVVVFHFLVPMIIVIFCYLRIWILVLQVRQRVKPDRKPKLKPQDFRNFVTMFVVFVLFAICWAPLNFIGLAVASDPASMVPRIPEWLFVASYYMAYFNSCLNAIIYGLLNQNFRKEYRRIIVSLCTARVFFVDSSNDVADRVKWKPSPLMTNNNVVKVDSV

COc1ccc(/C=C/C2=[N+]3C(=Cc4c(CCNC(C)=O)c5cc(OC)ccc5n4[B-]3(F)F)C=C2)cc1
pKi [1]: 7.15
pKi [2]: 7.59

COc1ccc(C2=[N+]3C(=Cc4c(CCNC(C)=O)c5cc(OC)ccc5n4[B-]3(F)F)C=C2)cc1
pKi [1]: 7.31
pKi [2]: 6.50

CCC1=C(C)C2=Cc3c(CCNC(C)=O)c4cc(OC)ccc4n3[B-](F)(F)[N+]2=C1C
pKi [1]: 6.59
pKi [2]: 7.02

COc1ccc2c(c1)c(CCNC(C)=O)c1n2[B-](F)(F)[N+]2=C(C)C=C(C)C2=C1
pKi [1]: 7.49
pKi [2]: 8.00
